# According to patent publication US5216183A, “Cyclopentanone/cyclopentenone derivative” (Teijin Limited, priority 1988, dated 1993):
# Tested on: human osteoblasts (KK-3, 18PDL)
# Assay: Measurement of bone formation activity (KK-3, 14 days)
# Type: cell-based
# Protocol: Human osteoblasts (KK-3, 18PDL) were cultured in an α-MEM containing 10% fetal calf serum. After the growth became stationary, the compound was added in a given concentration in the presence of 2 mM α-glycerophosphate and treated for 14 days. The cell phase was washed with physiological saline, and the alkaline phosphatase activity (ALP) was measured through the absorption of OD415. Then, calcium (Ca) and phosphorus (P) were extracted with a 2N hydrochloric acid and quantitatively determined.
# [1] = Table 26, 10^-6 M, control 0.27 ± 0.04
# [2] = Table 26, 10^-6 M, control 30.68 ± 3.33
# [3] = Table 26, 10^-6 M, control 45.61 ± 6.19
# [4] = Table 26, 10^-7 M, control 0.27 ± 0.04
# [5] = Table 26, 10^-7 M, control 45.61 ± 6.19
# [6] = Table 30, 10^-6 M, control 0.60 ± 0.02
# [7] = Table 30, 10^-6 M, control 3.00 ± 1.73
# [8] = Table 30, 10^-7 M, control 0.60 ± 0.02
# [9] = Table 30, 10^-7 M, control 3.00 ± 1.73
# [10] = Table 30, 10^-7 M, control 5.33 ± 1.15
# [11] = Table 27, 10^-7 M, control 0.58 ± 0.03
# [12] = Table 27, 10^-7 M, control 11.83 ± 3.18
# [13] = Table 28, 10^-6 M, control 4.33 ± 0.58
structure (smiles),measurement,setting,value
CC(=O)OC(/C=C/C(O)CCCO)C1C(=O)C(Sc2nccn2C)=CC1(O)CCCCOc1ccccc1 (stereo not shown),ALP,"Table 35, 10^-5 M, control 1.23 ± 0.02",0.15 OD415 /dish
same,Ca,"Table 35, 10^-5 M, control 3.00 ± 1.00",137.00 μg/dish
same,ALP,"Table 35, 10^-6 M, control 1.23 ± 0.02",1.28 ± 0.03 OD415 /dish
same,Ca,"Table 35, 10^-6 M, control 3.00 ± 1.00",51.67 ± 8.08 μg/dish
same,P,"Table 35, 10^-6 M, control 5.67 ± 0.58",35.33 ± 5.03 μg/dish
CCOc1ccc2nc(SC3=CC(O)(CCCCOc4ccccc4)C(=CC=CC(O)CCCO)C3=O)sc2c1 (stereo not shown) [drawing 1068],ALP,[1],0.10 ± 0.01 OD413 /dish
same,P,[2],41.45 ± 7.21 μg/dish
same,Ca,[3],81.88 ± 8.47 μg/dish
same,ALP,[4],0.34 ± 0.06 OD413 /dish
same,Ca,[5],61.19 μg/dish
Cn1ccnc1SC1=CC(O)(CCCCOc2ccccc2)C(=Cc2ccc(CC(CO)CO)cc2)C1=O (stereo not shown),ALP,[6],0.08 OD415 /dish
same,Ca,[7],116.00 μg/dish
same,ALP,[8],0.66 ± 0.03 OD415 /dish
same,Ca,[9],11.00 ± 1.73 μg/dish
same,P,[10],11.67 ± 1.15 μg/dish
O=C1C(Sc2ccccn2)=CC(O)(CCCCOc2ccccc2)C1=CC=CC(O)CCCO (stereo not shown),ALP,[1],0.36 ± 0.12 OD413 /dish
same,P,[2],42.28 ± 6.99 μg/dish
same,Ca,[3],70.42 ± 7.82 μg/dish
same,ALP,[4],0.29 ± 0.04 OD413 /dish
same,Ca,[5],56.85 μg/dish
CC(C)(C)C1=C(Sc2ccccc2)C(=O)C(=CC=CC(O)CCCO)C1O (stereo not shown),ALP,"Table 31, 10^-7 M, control 0.18 ± 0.06",0.16 ± 0.04 OD415 /dish
same,Ca,"Table 31, 10^-7 M, control 1.88 ± 0.31",2.43 ± 0.19 μg/dish
same,P,"Table 31, 10^-7 M, control 4.73 ± 0.37",4.68 ± 0.27 μg/dish
same,ALP,"Table 31, 10^-8 M, control 0.18 ± 0.06",0.15 OD415 /dish
same,Ca,"Table 31, 10^-8 M, control 1.88 ± 0.31",4.07 μg/dish
Cn1ccnc1SC1=CC(O)(CCCCOc2ccccc2)C(=C/C=C/CO)C1=O (stereo not shown),ALP,"Table 36, 10^-6 M, control 1.17 ± 0.03",1.18 OD415 /dish
same,Ca,"Table 36, 10^-6 M, control 2.33 ± 1.15",37.33 μg/dish
same,ALP,"Table 36, 10^-7 M, control 1.17 ± 0.03",1.20 ± 0.03 OD415 /dish
same,Ca,"Table 36, 10^-7 M, control 2.33 ± 1.15",2.33 ± 0.58 μg/dish
same,P,"Table 36, 10^-7 M, control 5.00 ± 0.00",4.33 ± 0.58 μg/dish
CSC1=CC(O)C(=CC=CC(O)CCCO)C1=O (stereo not shown) [drawing 1082],ALP,"Table 32, 10^-5 M, control 0.80 ± 0.01",0.53 OD415 /dish
same,Ca,"Table 32, 10^-5 M, control 23.00 ± 1.00",57.33 ± 2.08 μg/dish
same,ALP,"Table 32, 10^-6 M, control 0.80 ± 0.01",0.81 ± 0.06 OD415 /dish
same,P,"Table 32, 10^-6 M, control 15.67 ± 0.58",16.33 ± 2.08 μg/dish
same,Ca,"Table 32, 10^-6 M, control 23.00 ± 1.00",23.00 ± 3.46 μg/dish
O=C1C(SC2CCCCC2)=CC(O)(CCCCOc2ccccc2)C1=CC=CC(O)CCCO (stereo not shown) [drawing 1070],ALP,"Table 27, 10^-6 M, control 0.58 ± 0.03",0.64 ± 0.05 OD413 /dish
same,P,"Table 27, 10^-6 M, control 11.50 ± 1.73",24.83 ± 2.47 μg/dish
same,Ca,"Table 27, 10^-6 M, control 11.83 ± 3.18",33.50 ± 3.91 μg/dish
same,ALP,[11],0.53 OD413 /dish
same,Ca,[12],19.67 μg/dish
Cn1ccnc1SC1=CC(O)(CCCCOc2ccccc2)C(C(O)C=CC(O)CCCO)C1=O (stereo not shown) [drawing 1072],ALP,"Table 28, 10^-6 M, control 0.72 ± 0.01",0.76 ± 0.08 OD413 /dish
same,Ca,[13],26.17 ± 3.25 μg/dish
same,P,[13],19.33 ± 2.02 μg/dish
same,ALP,"Table 28, 10^-7 M, control 0.72 ± 0.01",0.81 OD413 /dish
same,Ca,"Table 28, 10^-7 M, control 4.33 ± 0.58",1.17 μg/dish
O=C1C(=CCCC2CCCCC2)CC=C1Sc1ccccc1,ALP,"Table 34, 10^-7 M, control 0.35 ± 0.02",0.36 ± 0.04 OD415 /dish
same,P,"Table 34, 10^-7 M, control 12.41 ± 1.50",12.33 ± 2.80 μg/dish
same,Ca,"Table 34, 10^-7 M, control 17.81 ± 0.50",23.94 ± 5.80 μg/dish
same,ALP,"Table 34, 10^-8 M, control 0.35 ± 0.02",0.30 OD415 /dish
same,P,"Table 34, 10^-8 M, control 12.41 ± 1.50",8.98 ± 1.89 μg/dish
same,Ca,"Table 34, 10^-8 M, control 17.81 ± 0.50",18.13 ± 2.6 μg/dish
O=C1C(SC2CCCCC2)=CC(O)(CCCCOc2ccccc2)C1C(O)C=CC(O)CCCO (stereo not shown),ALP,[11],0.55 ± 0.04 OD413 /dish
same,P,"Table 27, 10^-7 M, control 11.50 ± 1.73",11.67 ± 3.18 μg/dish
same,Ca,[12],13.83 ± 1.15 μg/dish
same,ALP,"Table 27, 10^-8 M, control 0.58 ± 0.03",0.36 OD413 /dish
same,Ca,"Table 27, 10^-8 M, control 11.83 ± 3.18",20.17 μg/dish
COC(=O)CCCCCC=C1C(=O)C(Sc2nccn2C)=CC1(O)CCCCOc1ccccc1 (stereo not shown),ALP,[6],0.60 OD415 /dish
same,Ca,[7],43.67 μg/dish
same,ALP,[8],0.63 ± 0.02 OD415 /dish
same,Ca,[9],3.67 ± 1.15 μg/dish
same,P,[10],6.33 ± 0.58 μg/dish
